Assay results: patent US6214859A, “Ethylamine derivatives” (Fujimoto Brothers Co., Ltd., priority 1997, dated 2001)
Values joined by “and” are separate entries in the source; they are usually repeats but may differ in a detail not shown here. Equal values may be shown once.

Experiments:
[1] = Toxicity screening using primary cultured hepatocyte (LDH release); assay type: cell-based, rat; settings: rat, primary hepatocytes, 24 hr, control 0.5% saline or 0.5% DMSO, read-out: Percent control of LDH release
Experimental: The hepatocytes was prepared from rat liver by collagenase perfusion method and suspension containing 5×10^5 cells/ml were prepared. After cultivation for 24 hr, the suspension was exchanged to the William's Medium E (GIBCO BRL) containing 10 or 100 μM of the compounds of this invention. After cultivation for 24 hr, the activity of lactate dehydrogenase (LDH) released in the medium was measured.

[2] = tested on: rats reduced learning ability by tetrabenazine; experiment: Conditioned avoidance task in the shuttle box (tetrabenazine-treated rats); assay type: in vivo, rat; settings: tetrabenazine 1 mg/kg s.c., significance and direction
Method in brief: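 Male and female rats (200–220 g) were trained in a shuttle box (light/buzzer conditioned stimulus, 100 trials/day for 5 days). Tetrabenazine 1 mg/kg s.c. was given 1 h before testing, with compound at 1, 2, 2.5 or 5 mg/kg s.c. given together with tetrabenazine. CARs, EFs and IRs were counted automatically and analysed by multi-way ANOVA.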

serotonin release, raphe = experiment: Release of biogenic amines from brain tissue: serotonin, raphe; assay type: in vivo, Wistar rats
[3] = tested on: dopamine release, striatum; experiment: Release of biogenic amines from brain tissue: dopamine, striatum; assay type: in vivo, Wistar rats

With `CCCNC(CCC)Cc1ccc2c(c1)OCO2.Cl` (stereo not shown) [Compound No. 27, 1-(1,3-Benzodioxol-5-yl)-2-propylaminopentane Hydrochloride] the activity at 24 h, 10 µM [1] was 115 ± 10.8%, the activity at 24 h, 100 µM [1] was 114 ± 11.2% and the “Condition Avoidance Reflex (CARs)” value ([2]; 1 mg/kg s.c.) was “*** .Arrow-up bold”. For the same molecule, the “Escape Failures (EFs)” value ([2]; 1 mg/kg s.c.) was “*** .dwnarw”, the “Release of serotonin, raphe” value (serotonin release, raphe; 0.10 mg/kg s.c.) was 0.399 ± 0.00 nmol/g tissue, for 20 min and the “Release of serotonin, raphe” value (serotonin release, raphe; 0.25 mg/kg s.c.) was 0.414 ± 0.01 nmol/g tissue, for 20 min. The “Release of dopamine, striatum” value ([3]; 0.10 mg/kg s.c.) was 3.4 ± 0.10 nmol/g tissue, for 20 min and the “Release of dopamine, striatum” value ([3]; 0.25 mg/kg s.c.) was 4.1 ± 0.24 nmol/g tissue, for 20 min.

With `CCCNC(CCC)Cc1c[nH]c2ccccc12.Cl` (stereo not shown) [Compound No. 20, 1-(Indol-3-yl)-2-propylaminopentane Hydrochloride] the activity at 24 h, 10 µM [1] was 92.7 ± 5.31%, the activity at 24 h, 100 µM [1] was 185 ± 3.45% and the “Condition Avoidance Reflex (CARs)” value ([2]; 1 mg/kg s.c., Hydrochloride) was “* .Arrow-up bold”. For the same molecule, the “Condition Avoidance Reflex (CARs)” value ([2]; 2.5 mg/kg s.c.) was “**** .Arrow-up bold”, the “Escape Failures (EFs)” value ([2]; 2.5 mg/kg s.c.) was “**** .dwnarw” and the “Condition Avoidance Reflex (CARs)” value ([2]; 5 mg/kg s.c.) was “**** .Arrow-up bold”. The “Escape Failures (EFs)” value ([2]; 5 mg/kg s.c.) was “* .dwnarw”, the “Intersignal Reactions (IRs)” value ([2]; 5 mg/kg s.c.) was “* .dwnarw” and the “Release of serotonin, raphe” value (serotonin release, raphe; 0.005 mg/kg s.c.) was 0.492 ± 0.02 nmol/g tissue, for 20 min. For the same molecule, the “Release of serotonin, raphe” value (serotonin release, raphe; 0.01 mg/kg s.c., Hydrochloride) was 0.961 ± 0.02 nmol/g tissue, for 20 min and 0.938 ± 0.01 nmol/g tissue, for 20 min, the “Release of serotonin, raphe” value (serotonin release, raphe; 0.05 mg/kg s.c.) was 1.203 ± 0.08 nmol/g tissue, for 20 min and the “Release of serotonin, raphe” value (serotonin release, raphe; 0.25 mg/kg s.c.) was 0.481 ± 0.05 nmol/g tissue, for 20 min. For the same molecule, the “Release of serotonin, raphe” value (serotonin release, raphe; 1.00 mg/kg s.c.) was 0.355 ± 0.05 nmol/g tissue, for 20 min, the “Release of serotonin, raphe” value (serotonin release, raphe; 5.00 mg/kg s.c.) was 0.565 ± 0.01 nmol/g tissue, for 20 min and the “Release of dopamine, striatum” value ([3]; 0.005 mg/kg s.c.) was 5.8 ± 0.11 nmol/g tissue, for 20 min. For the same molecule, the “Release of dopamine, striatum” value ([3]; 0.01 mg/kg s.c., Hydrochloride) was 6.5 ± 0.12 nmol/g tissue, for 20 min and 5.8 ± 0.18 nmol/g tissue, for 20 min, the “Release of dopamine, striatum” value ([3]; 0.05 mg/kg s.c.) was 5.6 ± 0.13 nmol/g tissue, for 20 min and the “Release of dopamine, striatum” value ([3]; 0.25 mg/kg s.c.) was 3.2 ± 0.05 nmol/g tissue, for 20 min. The “Release of dopamine, striatum” value ([3]; 1.00 mg/kg s.c.) was 4.2 ± 0.15 nmol/g tissue, for 20 min and the “Release of dopamine, striatum” value ([3]; 5.00 mg/kg s.c.) was 4.7 ± 0.13 nmol/g tissue, for 20 min.
